Measurements taken from PubChem BioAssay (NCI).
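Where inhibition never reached the appropriate level, the endpoint shown equals the highest concentration tested. Otherwise, values were interpolated linearly from a five-concentration, 48-hour dose response in 96-well plates. At the TGI there is no net growth.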

How the values were obtained:
Assay in all cases: DTP human tumour cell line panel, 48 h
[1] = system: SF-539 CNS
[2] = system: UACC-257 melanoma
[3] = system: ACHN renal
[4] = system: CCRF-CEM leukemia
[5] = system: COLO 205 colon
[6] = system: A498 renal
[7] = system: BT-549 breast
[8] = system: TK-10 renal
[9] = system: HT29 colon
[10] = system: K-562 leukemia
[11] = system: HS 578T breast
[12] = system: A549 NSCLC
[13] = system: SW-620 colon
[14] = system: OVCAR-8 ovarian
[15] = system: SNB-75 CNS
[16] = system: U251 CNS
[17] = system: RXF 393 renal
[18] = system: MDA-N
[19] = system: SNB-19 CNS
[20] = system: 786-0 renal
[21] = system: KM12 colon
[22] = system: SK-OV-3 ovarian
[23] = system: MDA-MB-231 breast
[24] = system: HOP-92 NSCLC
[25] = system: HOP-62 NSCLC
[26] = system: RPMI-8226 leukemia
[27] = system: MDA-MB-435
[28] = system: SK-MEL-2 melanoma
[29] = system: MOLT-4 leukemia
[30] = system: NCI-H522 lung
[31] = system: SF-295 CNS
[32] = system: NCI-H226 lung
[33] = system: OVCAR-4 ovarian
[34] = system: CAKI-1 renal
[35] = system: NCI/ADR-RES ovarian
[36] = system: HCC-2998 colon
[37] = system: LOX IMVI melanoma
[38] = system: IGROV1 ovarian
[39] = system: HCT-116 colon
[40] = system: HCT-15 colon
[41] = system: EKVX NSCLC
[42] = system: SK-MEL-5 melanoma
[43] = system: SF-268 CNS
[44] = system: MCF7 breast
[45] = system: M14 melanoma
[46] = system: NCI-H460 lung
[47] = system: HL-60(TB) leukemia
[48] = system: SN12C renal
[49] = system: SK-MEL-28 melanoma
[50] = system: OVCAR-5 ovarian
[51] = system: PC-3 prostate
[52] = system: UACC-62 melanoma
[53] = system: MALME-3M melanoma
[54] = system: T-47D breast
[55] = system: NCI-H23 lung
[56] = system: DU-145 prostate
[57] = system: UO-31 renal
[58] = system: SR leukemia
[59] = system: OVCAR-3 ovarian

N#Cc1c(-c2ccc(Cl)cc2)c(C#N)c(=O)n(NS(=O)(=O)c2ccccc2)c1O
TGI [1]: 55.6 µM | TGI [2]: > 100 µM | TGI [3]: > 100 µM | TGI [4]: 88.6 µM | TGI [5]: > 100 µM | TGI [6]: 70.1 µM | TGI [7]: 32.8 µM | TGI [8]: > 100 µM | TGI [9]: > 100 µM | TGI [10]: > 100 µM | TGI [11]: 63.9 µM | TGI [12]: > 100 µM | TGI [13]: > 100 µM | TGI [14]: > 100 µM | TGI [15]: > 100 µM | TGI [16]: > 100 µM | TGI [17]: 69.6 µM | TGI [18]: > 100 µM | TGI [19]: > 100 µM | TGI [20]: > 100 µM | TGI [21]: 77.8 µM | TGI [22]: 79 µM | TGI [23]: 98.2 µM | TGI [24]: 71.1 µM | TGI [25]: > 100 µM | TGI [26]: 26.2 µM | TGI [27]: > 100 µM | TGI [28]: 44 µM | TGI [29]: 71.2 µM | TGI [30]: > 100 µM | TGI [31]: > 100 µM | TGI [32]: > 100 µM | TGI [33]: > 100 µM | TGI [34]: 48 µM | TGI [35]: 93 µM | TGI [36]: 35 µM | TGI [37]: 30.7 µM | TGI [38]: > 100 µM | TGI [39]: 33.1 µM | TGI [40]: 62.3 µM | TGI [41]: > 100 µM | TGI [42]: 32.3 µM | TGI [43]: > 100 µM | TGI [44]: 42.9 µM | TGI [45]: > 100 µM | TGI [46]: 55 µM | TGI [47]: 41.3 µM | TGI [48]: > 100 µM | TGI [49]: > 100 µM | TGI [50]: > 100 µM | TGI [51]: 48.8 µM | TGI [52]: 29.6 µM | TGI [53]: > 100 µM

Cn1c2c(c3ccccc31)CCN1C(=O)CN(C(=O)C3CCCCC3)CC21 (configuration not stated)
TGI [1]: > 100 µM | TGI [2]: > 100 µM | TGI [54]: > 100 µM | TGI [3]: > 100 µM | TGI [4]: > 100 µM | TGI [5]: > 100 µM | TGI [8]: > 100 µM | TGI [9]: > 100 µM | TGI [10]: > 100 µM | TGI [11]: > 100 µM | TGI [12]: > 100 µM | TGI [13]: > 100 µM | TGI [55]: > 100 µM | TGI [14]: > 100 µM | TGI [15]: > 100 µM | TGI [16]: > 100 µM | TGI [56]: > 100 µM | TGI [17]: > 100 µM | TGI [18]: > 100 µM | TGI [19]: > 100 µM | TGI [20]: > 100 µM | TGI [21]: > 100 µM | TGI [22]: > 100 µM | TGI [23]: > 100 µM | TGI [24]: > 100 µM | TGI [25]: > 100 µM | TGI [26]: > 100 µM | TGI [27]: > 100 µM | TGI [28]: > 100 µM | TGI [29]: > 100 µM | TGI [30]: > 100 µM | TGI [31]: > 100 µM | TGI [32]: > 100 µM | TGI [33]: > 100 µM | TGI [35]: > 100 µM | TGI [36]: > 100 µM | TGI [37]: > 100 µM | TGI [38]: > 100 µM | TGI [39]: > 100 µM | TGI [40]: > 100 µM | TGI [41]: > 100 µM | TGI [42]: > 100 µM | TGI [43]: > 100 µM | TGI [44]: > 100 µM | TGI [45]: > 100 µM | TGI [46]: > 100 µM | TGI [57]: > 100 µM | TGI [47]: > 100 µM | TGI [48]: > 100 µM | TGI [49]: > 100 µM | TGI [58]: > 100 µM | TGI [50]: > 100 µM | TGI [51]: > 100 µM | TGI [52]: > 100 µM | TGI [59]: > 100 µM | TGI [53]: > 100 µM

Nc1ccn([C@H]2CO[C@@H](CO)[C@@H]2O)c(=O)n1
TGI [1]: > 100 µM | TGI [2]: > 100 µM | TGI [54]: > 100 µM | TGI [3]: > 100 µM | TGI [4]: > 100 µM | TGI [5]: > 100 µM | TGI [6]: > 100 µM | TGI [7]: > 100 µM | TGI [8]: > 100 µM | TGI [9]: > 100 µM | TGI [10]: > 100 µM | TGI [13]: > 100 µM | TGI [55]: > 100 µM | TGI [15]: > 100 µM | TGI [16]: > 100 µM | TGI [56]: > 100 µM | TGI [17]: > 100 µM | TGI [18]: > 100 µM | TGI [20]: > 100 µM | TGI [21]: > 100 µM | TGI [22]: > 100 µM | TGI [23]: > 100 µM | TGI [24]: > 100 µM | TGI [25]: > 100 µM | TGI [26]: > 100 µM | TGI [27]: > 100 µM | TGI [28]: > 100 µM | TGI [29]: > 100 µM | TGI [31]: > 100 µM | TGI [32]: > 100 µM | TGI [33]: > 100 µM | TGI [34]: > 100 µM | TGI [35]: > 100 µM | TGI [36]: > 100 µM | TGI [37]: > 100 µM | TGI [38]: > 100 µM | TGI [39]: > 100 µM | TGI [40]: > 100 µM | TGI [41]: > 100 µM | TGI [42]: > 100 µM | TGI [43]: > 100 µM | TGI [44]: > 100 µM | TGI [46]: > 100 µM | TGI [57]: > 100 µM | TGI [48]: > 100 µM | TGI [49]: > 100 µM | TGI [58]: > 100 µM | TGI [50]: > 100 µM | TGI [51]: > 100 µM | TGI [52]: > 100 µM | TGI [59]: > 100 µM

[N-]=[N+]=NCc1nc(N)c2c3c(sc2n1)CCCC3
TGI [1]: 3.46 µM | TGI [2]: 25.8 µM | TGI [54]: 63.3 µM | TGI [3]: 14.1 µM | TGI [4]: > 100 µM | TGI [5]: > 39.3 µM | TGI [6]: 45 µM | TGI [8]: 26.5 µM | TGI [9]: 3.15 µM | TGI [10]: > 40.6 µM | TGI [11]: 14.9 µM | TGI [12]: 36.6 µM | TGI [13]: > 100 µM | TGI [55]: 3.78 µM | TGI [14]: 3.72 µM | TGI [15]: 20.9 µM | TGI [16]: > 25.3 µM | TGI [56]: 13.2 µM | TGI [17]: 19.3 µM | TGI [18]: 13.9 µM | TGI [19]: 21.4 µM | TGI [20]: 1.55 µM | TGI [21]: 2.86 µM | TGI [22]: 24.1 µM | TGI [23]: 80.6 µM | TGI [24]: 1.77 µM | TGI [25]: 18.3 µM | TGI [26]: > 24.9 µM | TGI [27]: 32 µM | TGI [28]: 27.9 µM | TGI [29]: > 100 µM | TGI [31]: 27.9 µM | TGI [32]: 5.97 µM | TGI [33]: 1.42 µM | TGI [34]: 8.32 µM | TGI [35]: > 22.2 µM | TGI [36]: 4.76 µM | TGI [37]: 2.13 µM | TGI [38]: 2.92 µM | TGI [39]: 12 µM | TGI [40]: 11.4 µM | TGI [41]: 4.95 µM | TGI [42]: 3.41 µM | TGI [43]: 6.23 µM | TGI [44]: 16.3 µM | TGI [45]: 17.7 µM | TGI [46]: 13.6 µM | TGI [57]: 0.227 µM | TGI [47]: > 100 µM | TGI [48]: 10.2 µM | TGI [49]: 36.3 µM | TGI [58]: > 100 µM | TGI [50]: 10.1 µM | TGI [51]: 6.72 µM | TGI [52]: 23.6 µM | TGI [59]: 11.8 µM | TGI [53]: 3.27 µM
